According to paper PMC8500670, “A selective WDR5 degrader inhibits acute myeloid leukemia in patient-derived mouse models” (Science translational medicine, 2021):

Columns and labels:
Assay in all cases: biochemical
Design in all cases: kinase selectivity panel, activity as per cent of control, single concentration in duplicate
Conditions in all cases: read-out: % of control remaining
EphB4(h) = EphB4(h) (Homo sapiens, UniProt P54760)
Method: (§1) We next assessed selectivity of MS67 against 22 protein methyltransferases (table S2) and a broad panel of common drug targets including 45 kinases (table S3) and 44 G protein–coupled receptors (GPCR), ion channels, and transporters (table S4). […] We subsequently determined that MS67 had moderate binding affinity (Ki = 1.0 ± 0.8 μM) to Sigma 2 receptor (fig. S10).

FGFR3(h) = FGFR3(h) (Homo sapiens, UniProt P22607)
Method: as §1

KDR(h) = KDR(h) (Homo sapiens, UniProt P35968)
Method: as §1

EphA3(h) = EphA3(h) (Homo sapiens, UniProt P29320)
Method: as §1

SGK(h) = molecular target: T1, SGK(h) (Homo sapiens, UniProt O00141)
T1 construct: gene SGK1
Method: as §1

PKBα(h) = molecular target: T2, PKBα(h) (Homo sapiens, UniProt P31749)
T2 construct: gene AKT1
Method: as §1

Pim-2(h) = molecular target: T3, Pim-2(h) (Homo sapiens, UniProt Q9P1W9)
T3 construct: gene PIM2
Method: as §1

CHK1(h) = molecular target: T4, CHK1(h) (Homo sapiens, UniProt O14757)
T4 construct: gene CHEK1
Method: as §1

Abl(h) = molecular target: T5, Abl(h) (Homo sapiens, UniProt P00519)
T5 construct: gene ABL1
Method: as §1

SAPK2a(h) = molecular target: T6, SAPK2a(h) (Homo sapiens, UniProt Q16539)
T6 construct: gene MAPK14
Method: as §1

CDK1/cyclinB(h) = CDK1/cyclinB(h) (Homo sapiens, UniProt P06493)
Method: as §1

PDK1(h) = molecular target: T7, PDK1(h) (Homo sapiens, UniProt O15530)
T7 construct: gene PDPK1
Method: as §1

JAK3(h) = JAK3(h) (Homo sapiens, UniProt P52333)
Method: as §1

SIK(h) = molecular target: T8, SIK(h) (Homo sapiens, UniProt P57059)
T8 construct: gene SIK1
Method: as §1

MAPKAP-K2(h) = molecular target: T9, MAPKAP-K2(h) (Homo sapiens, UniProt P49137)
T9 construct: gene MAPKAPK2
Method: as §1

Plk1(h) = Plk1(h) (Homo sapiens, UniProt P53350)
Method: as §1

IRAK4(h) = IRAK4(h) (Homo sapiens, UniProt Q9NWZ3)
Method: as §1

EphA2(h) = EphA2(h) (Homo sapiens, UniProt P29317)
Method: as §1

GSK3β(h) = molecular target: T10, GSK3β(h) (Homo sapiens, UniProt P49841)
T10 construct: gene GSK3B
Method: as §1

FGFR1(h) = FGFR1(h) (Homo sapiens, UniProt P11362)
Method: as §1

ROCK-I(h) = molecular target: T11, ROCK-I(h) (Homo sapiens, UniProt Q13464)
T11 construct: gene ROCK1
Method: as §1

NEK2(h) = NEK2(h) (Homo sapiens, UniProt P51955)
Method: as §1

cSRC(h) = molecular target: T12, cSRC(h) (Homo sapiens, UniProt P12931)
T12 construct: gene SRC
Method: as §1

CaMKIIα(h) = molecular target: T13, CaMKIIα(h) (Homo sapiens, UniProt Q9UQM7)
T13 construct: gene CAMK2A
Method: as §1

TAO2(h) = molecular target: T14, TAO2(h) (Homo sapiens, UniProt Q9UL54)
T14 construct: gene TAOK2
Method: as §1

PAK4(h) = PAK4(h) (Homo sapiens, UniProt O96013)
Method: as §1

Sequence of EphA3(h) (P29320 whole entry): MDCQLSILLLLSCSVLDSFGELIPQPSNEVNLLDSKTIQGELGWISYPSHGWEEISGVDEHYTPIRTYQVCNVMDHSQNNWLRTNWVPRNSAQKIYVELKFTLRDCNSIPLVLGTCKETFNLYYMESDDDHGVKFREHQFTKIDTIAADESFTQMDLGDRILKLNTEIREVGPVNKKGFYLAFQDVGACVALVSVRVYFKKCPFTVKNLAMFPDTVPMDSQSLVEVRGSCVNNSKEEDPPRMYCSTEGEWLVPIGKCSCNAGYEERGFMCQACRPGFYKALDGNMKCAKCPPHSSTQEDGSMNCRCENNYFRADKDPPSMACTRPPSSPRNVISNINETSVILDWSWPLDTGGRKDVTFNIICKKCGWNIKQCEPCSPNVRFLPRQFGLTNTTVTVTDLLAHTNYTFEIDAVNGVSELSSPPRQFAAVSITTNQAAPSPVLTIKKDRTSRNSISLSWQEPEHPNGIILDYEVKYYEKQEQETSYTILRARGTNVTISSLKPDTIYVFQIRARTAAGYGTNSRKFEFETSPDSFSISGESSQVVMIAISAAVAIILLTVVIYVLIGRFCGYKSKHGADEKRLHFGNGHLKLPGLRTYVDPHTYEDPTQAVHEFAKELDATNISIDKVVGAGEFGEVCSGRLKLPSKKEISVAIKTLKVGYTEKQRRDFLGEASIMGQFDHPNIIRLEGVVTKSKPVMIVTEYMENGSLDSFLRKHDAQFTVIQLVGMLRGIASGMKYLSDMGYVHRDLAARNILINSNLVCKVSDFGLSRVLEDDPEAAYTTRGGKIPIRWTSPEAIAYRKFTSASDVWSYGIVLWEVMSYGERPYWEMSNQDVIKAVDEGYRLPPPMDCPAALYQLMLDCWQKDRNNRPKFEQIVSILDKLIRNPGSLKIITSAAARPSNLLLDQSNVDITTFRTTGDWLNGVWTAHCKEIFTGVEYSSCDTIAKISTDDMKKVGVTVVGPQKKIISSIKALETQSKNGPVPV
T13 sequence (Q9UQM7 whole entry): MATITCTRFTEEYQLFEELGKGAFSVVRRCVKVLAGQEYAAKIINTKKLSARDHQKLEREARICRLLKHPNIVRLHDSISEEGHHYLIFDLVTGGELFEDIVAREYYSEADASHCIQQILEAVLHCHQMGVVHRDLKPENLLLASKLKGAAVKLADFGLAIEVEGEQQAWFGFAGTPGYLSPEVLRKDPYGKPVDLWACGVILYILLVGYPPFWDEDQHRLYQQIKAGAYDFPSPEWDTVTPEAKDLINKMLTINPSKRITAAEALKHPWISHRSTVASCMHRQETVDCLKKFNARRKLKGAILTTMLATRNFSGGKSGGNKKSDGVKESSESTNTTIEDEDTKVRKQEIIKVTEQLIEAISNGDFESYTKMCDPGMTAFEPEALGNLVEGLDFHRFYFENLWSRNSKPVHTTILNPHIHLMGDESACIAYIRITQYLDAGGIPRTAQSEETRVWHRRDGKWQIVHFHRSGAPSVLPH
T1 sequence (O00141 whole entry): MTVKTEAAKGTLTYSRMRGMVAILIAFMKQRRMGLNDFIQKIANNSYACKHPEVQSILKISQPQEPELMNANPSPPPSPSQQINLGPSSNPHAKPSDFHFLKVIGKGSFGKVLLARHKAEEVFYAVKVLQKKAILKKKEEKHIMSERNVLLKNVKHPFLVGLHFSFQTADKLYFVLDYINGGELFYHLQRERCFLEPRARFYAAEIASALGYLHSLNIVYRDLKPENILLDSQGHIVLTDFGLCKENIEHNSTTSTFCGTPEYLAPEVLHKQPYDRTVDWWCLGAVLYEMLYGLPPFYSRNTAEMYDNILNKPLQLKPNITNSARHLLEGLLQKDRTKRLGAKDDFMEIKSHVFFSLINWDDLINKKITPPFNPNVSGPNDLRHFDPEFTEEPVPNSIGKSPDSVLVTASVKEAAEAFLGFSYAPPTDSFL
Sequence of EphA2(h) (P29317 whole entry): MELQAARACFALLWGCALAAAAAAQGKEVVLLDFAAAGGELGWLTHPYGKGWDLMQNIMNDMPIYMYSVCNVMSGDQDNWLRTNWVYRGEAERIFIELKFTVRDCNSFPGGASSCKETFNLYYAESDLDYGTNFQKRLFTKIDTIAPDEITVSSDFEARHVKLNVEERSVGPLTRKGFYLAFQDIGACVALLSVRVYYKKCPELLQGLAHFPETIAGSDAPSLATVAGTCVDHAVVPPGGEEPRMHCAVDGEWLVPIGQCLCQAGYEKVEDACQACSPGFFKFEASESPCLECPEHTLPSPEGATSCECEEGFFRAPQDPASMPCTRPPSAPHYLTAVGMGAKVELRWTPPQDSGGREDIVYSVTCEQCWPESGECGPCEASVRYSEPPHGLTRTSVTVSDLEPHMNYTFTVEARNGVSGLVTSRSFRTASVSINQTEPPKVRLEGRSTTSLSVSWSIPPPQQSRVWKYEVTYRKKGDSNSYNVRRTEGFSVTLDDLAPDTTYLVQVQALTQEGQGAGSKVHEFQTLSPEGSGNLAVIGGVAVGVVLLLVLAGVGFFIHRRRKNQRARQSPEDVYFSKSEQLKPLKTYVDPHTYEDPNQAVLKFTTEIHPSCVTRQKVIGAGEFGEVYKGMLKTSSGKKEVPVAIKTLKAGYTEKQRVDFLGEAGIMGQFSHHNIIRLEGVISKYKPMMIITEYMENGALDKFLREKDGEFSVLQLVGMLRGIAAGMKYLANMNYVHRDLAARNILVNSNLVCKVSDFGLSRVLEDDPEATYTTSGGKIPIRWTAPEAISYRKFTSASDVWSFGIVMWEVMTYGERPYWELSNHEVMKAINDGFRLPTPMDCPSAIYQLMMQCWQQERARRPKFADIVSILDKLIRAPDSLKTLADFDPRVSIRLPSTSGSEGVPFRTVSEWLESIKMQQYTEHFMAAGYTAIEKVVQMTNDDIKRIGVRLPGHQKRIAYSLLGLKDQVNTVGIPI
T3 sequence (Q9P1W9 whole entry): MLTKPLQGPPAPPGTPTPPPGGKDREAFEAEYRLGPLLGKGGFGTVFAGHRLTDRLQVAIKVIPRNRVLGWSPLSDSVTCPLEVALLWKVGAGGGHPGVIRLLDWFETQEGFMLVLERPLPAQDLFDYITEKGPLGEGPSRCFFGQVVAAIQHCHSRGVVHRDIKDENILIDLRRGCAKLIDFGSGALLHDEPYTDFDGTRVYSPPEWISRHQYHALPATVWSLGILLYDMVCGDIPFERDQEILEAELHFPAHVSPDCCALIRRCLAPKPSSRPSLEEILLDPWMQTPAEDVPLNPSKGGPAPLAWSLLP
Sequence of IRAK4(h) (Q9NWZ3 whole entry): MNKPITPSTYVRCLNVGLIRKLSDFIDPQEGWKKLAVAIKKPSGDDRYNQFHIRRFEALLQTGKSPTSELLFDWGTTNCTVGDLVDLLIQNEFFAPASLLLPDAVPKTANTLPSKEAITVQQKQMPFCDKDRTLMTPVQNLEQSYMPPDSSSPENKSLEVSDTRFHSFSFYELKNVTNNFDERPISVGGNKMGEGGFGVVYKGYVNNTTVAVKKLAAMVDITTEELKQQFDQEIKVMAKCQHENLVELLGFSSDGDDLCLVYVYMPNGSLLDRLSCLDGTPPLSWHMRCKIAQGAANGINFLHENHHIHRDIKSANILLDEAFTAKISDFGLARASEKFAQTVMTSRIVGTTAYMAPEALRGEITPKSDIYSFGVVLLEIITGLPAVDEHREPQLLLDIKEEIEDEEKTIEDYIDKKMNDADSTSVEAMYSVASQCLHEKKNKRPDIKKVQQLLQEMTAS
Sequence of Plk1(h) (P53350 whole entry): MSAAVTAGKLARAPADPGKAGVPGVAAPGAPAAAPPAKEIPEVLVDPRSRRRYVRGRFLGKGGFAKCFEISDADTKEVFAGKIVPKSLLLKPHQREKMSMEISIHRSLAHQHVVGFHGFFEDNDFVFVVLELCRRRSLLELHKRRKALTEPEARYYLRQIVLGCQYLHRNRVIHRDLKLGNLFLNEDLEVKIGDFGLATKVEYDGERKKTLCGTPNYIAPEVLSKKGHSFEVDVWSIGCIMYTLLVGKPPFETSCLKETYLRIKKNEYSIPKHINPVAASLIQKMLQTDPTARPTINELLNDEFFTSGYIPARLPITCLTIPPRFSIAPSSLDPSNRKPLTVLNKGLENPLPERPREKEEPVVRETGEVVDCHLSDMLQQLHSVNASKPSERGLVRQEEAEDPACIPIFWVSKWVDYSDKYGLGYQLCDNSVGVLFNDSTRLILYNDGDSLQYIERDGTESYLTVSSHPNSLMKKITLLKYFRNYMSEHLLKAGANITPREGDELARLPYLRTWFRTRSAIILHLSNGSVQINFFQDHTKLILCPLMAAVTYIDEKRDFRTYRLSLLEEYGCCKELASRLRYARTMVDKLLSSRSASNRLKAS
T2 sequence (P31749 whole entry): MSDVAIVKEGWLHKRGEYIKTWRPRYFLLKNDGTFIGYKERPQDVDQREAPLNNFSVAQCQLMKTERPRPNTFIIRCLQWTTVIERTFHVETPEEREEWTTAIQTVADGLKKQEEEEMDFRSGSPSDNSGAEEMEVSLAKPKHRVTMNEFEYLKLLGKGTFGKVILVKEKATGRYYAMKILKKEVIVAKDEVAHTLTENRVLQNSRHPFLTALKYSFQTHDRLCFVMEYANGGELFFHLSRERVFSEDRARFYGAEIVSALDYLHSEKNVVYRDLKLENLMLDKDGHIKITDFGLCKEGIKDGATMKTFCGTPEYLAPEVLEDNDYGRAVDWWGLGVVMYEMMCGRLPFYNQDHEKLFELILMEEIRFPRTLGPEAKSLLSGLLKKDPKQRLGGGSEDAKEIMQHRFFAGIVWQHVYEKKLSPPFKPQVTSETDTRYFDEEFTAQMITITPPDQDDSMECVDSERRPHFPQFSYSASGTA

Cc1ncsc1-c1ccc([C@H](C)NC(=O)[C@@H]2C[C@@H](O)CN2C(=O)[C@@H](NC(=O)CNC(=O)c2ccc(F)c(-c3ccc(N4C[C@@H](C)N(C)[C@@H](C)C4)c(NC(=O)c4c[nH]c(=O)cc4C(F)(F)F)c3)c2)C(C)(C)C)cc1 [MS67]
remaining activity at 1 µM (EphB4(h)): 150% | remaining activity at 1 µM (FGFR3(h)): 104% | remaining activity at 1 µM (KDR(h)): 110% | remaining activity at 1 µM (EphA3(h)): 125% | remaining activity at 1 µM (SGK(h)): 113% | remaining activity at 1 µM (PKBα(h)): 93% | remaining activity at 1 µM (Pim-2(h)): 99% | remaining activity at 1 µM (CHK1(h)): 78% | remaining activity at 1 µM (Abl(h)): 99% | remaining activity at 1 µM (SAPK2a(h)): 99% | remaining activity at 1 µM (CDK1/cyclinB(h)): 94% | remaining activity at 1 µM (PDK1(h)): 110% | remaining activity at 1 µM (JAK3(h)): 100% | remaining activity at 1 µM (SIK(h)): 84% | remaining activity at 1 µM (MAPKAP-K2(h)): 104% | remaining activity at 1 µM (Plk1(h)): 87% | remaining activity at 1 µM (IRAK4(h)): 109% | remaining activity at 1 µM (EphA2(h)): 80% | remaining activity at 1 µM (GSK3β(h)): 110% | remaining activity at 1 µM (FGFR1(h)): 105% | remaining activity at 1 µM (ROCK-I(h)): 109% | remaining activity at 1 µM (NEK2(h)): 111% | remaining activity at 1 µM (cSRC(h)): 96% | remaining activity at 1 µM (CaMKIIα(h)): 92% | remaining activity at 1 µM (TAO2(h)): 95% | remaining activity at 1 µM (PAK4(h)): 95%
